Results reported in the supplement of paper PMC6045584.

Experiments:
Assay in all cases: area under dose-response curve of surviving fraction (unscaled, Aref=0) (surviving fraction x log10(nM)); higher = more resistant
Details in all cases: exposure time: 5 days; dose range 0.5-1000 nM
[1] = compound: CO[C@H]1C[C@@H]2CC[C@@H](C)[C@@](O)(O2)C(=O)C(=O)N2CCCC[C@H]2C(=O)O[C@H]([C@H](C)C[C@@H]2CC[C@@H](OCCO)[C@H](OC)C2)CC(=O)[C@H](C)/C=C(\C)[C@@H](O)[C@@H](OC)C(=O)[C@H](C)C[C@H](C)/C=C/C=C/C=C/1C [EVEROLIMUS]
Outline: (§1)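 Three screens per tumour cell line were run in 384-well plates at eight inhibitor concentrations from 0.5 to 1000 nM over five days. Surviving fractions, from CellTiter-Glo luminescence normalised to DMSO-only wells, were fitted with 3-parameter logistic curves in the drc R package. The reported area under the curve is the unscaled activity area. It spans log10 dose, and Aref is 0.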

[2] = compound: O=C(O)CC[C@H]1CC[C@@](c2cc(F)ccc2F)(S(=O)(=O)c2ccc(Cl)cc2)CC1 [MK0752]
Outline: as §1

[3] = compound: CN(Cc1cnc2nc(N)nc(N)c2n1)c1ccc(C(=O)N[C@@H](CCC(=O)O)C(=O)O)cc1 [METHOTREXATE]
Outline: as §1

[4] = compound: CCN(CC)CCNC(=O)c1c(C)[nH]c(/C=C2\C(=O)Nc3ccc(F)cc32)c1C [SUNITINIB]
Outline: as §1

[5] = compound: CCCS(=O)(=O)Nc1ccc(F)c(C(=O)c2c[nH]c3ncc(Cl)cc23)c1F [PLX-4720]
Outline: as §1

[6] = compound: Nc1ccn([C@@H]2O[C@H](CO)[C@@H](O)C2(F)F)c(=O)n1 [GEMCITABINE]
Outline: as §1

[7] = compound: C#Cc1cccc(Nc2ncnc3cc(OCCOC)c(OCCOC)cc23)c1 [ERLOTINIB]
Outline: as §1

[8] = compound: Cc1nc(Nc2n[nH]c3c2CN(C(=O)N[C@H](CN(C)C)c2ccccc2)C3(C)C)c2sccc2n1
Outline: as §1

[9] = compound: COc1cc([C@@H]2c3cc4c(cc3[C@@H](O[C@@H]3O[C@@H]5CO[C@@H](C)O[C@H]5[C@H](O)[C@H]3O)[C@H]3COC(=O)[C@H]23)OCO4)cc(OC)c1O [ETOPOSIDE]
Outline: as §1

[10] = compound: CCC1=C[C@@H]2CN(C1)Cc1c([nH]c3ccccc13)[C@@](C(=O)OC)(c1cc3c(cc1OC)N(C)[C@H]1[C@@](O)(C(=O)OC)[C@H](OC(C)=O)[C@]4(CC)C=CCN5CC[C@]31[C@@H]54)C2 [VINORELBINE]
Outline: as §1

[11] = compound: COc1cc(CCc2cc(NC(=O)c3ccc(N4CC(C)NC(C)C4)cc3)n[nH]2)cc(OC)c1 [AZD4547]
Outline: as §1

[12] = compound: NC1(c2ccc(-c3nc4ccn5c(=O)[nH]nc5c4cc3-c3ccccc3)cc2)CCC1 [MK2206]
Outline: as §1

[13] = compound: O=C(NOCC1CC1)c1ccc(F)c(F)c1Nc1ccc(I)cc1Cl
Outline: as §1

| Test System | area under dose-response curve [1] | area under dose-response curve [2] | area under dose-response curve [3] | area under dose-response curve [4] | area under dose-response curve [5] | area under dose-response curve [6] | area under dose-response curve [7] | area under dose-response curve [8] | area under dose-response curve [9] | area under dose-response curve [10] | area under dose-response curve [11] | area under dose-response curve [12] | area under dose-response curve [13] |
| --- | --- | --- | --- | --- | --- | --- | --- | --- | --- | --- | --- | --- | --- |
| MDAMB468 BREAST | 1.93 | 3.61 | 2 | 3.17 | 3.1 | 1.09 | 3.23 | 0.925 | 3.72 | 1.33 | 3.6 | 3.04 | 3.21 |
| U2OS BONE | 2.39 | 3.56 | 2.4 | 2.94 | 3.23 | 1.49 | 3.46 | 1.35 | 2.88 | 2.14 | 2.79 | 3.14 | 3.26 |
| HCC70 BREAST | 1.89 | 3.56 | 3 | 3.4 | 3.36 | 1.12 | 3.46 | 0.85 | 3.16 | 1.66 | 3.63 | 2.8 | 2.8 |
| HSSYII SYNOVIAL | 1.79 | 3.29 | 2.96 | 1.93 | 2.43 | 0.795 | 3.37 | 1.02 | 2.41 | 0.855 | 1.51 | 3.02 | 2.61 |
| CADOES1 SOFT TISSUE | 1.49 | 3.14 | 1.82 | 3.22 | 3.09 | 1.18 | 2.74 | 2.56 | 3 | 2.63 | 3.23 | 2.82 | 2.87 |
| MHM BONE | 2.37 | 3.45 | 2.88 | 3.15 | 3.27 | 1.46 | 3.44 | 2.58 | 3.23 | 2.21 | 2.76 | 3.2 | 3.16 |
| SNU475 LIVER | 1.26 | 3.31 | 3 | 2.27 | 2.43 | 1.81 | 3.21 | 1.98 | 3.16 | 2.17 | 3.14 | 3.02 | 2.41 |
| HCT15 LARGE INTESTINE | 1.86 | 3.61 | 1.59 | 2.37 | 2.63 | 1.15 | 3.48 | 2.81 | 3.09 | 2.64 | 3.52 | 3.46 | 2.63 |
| DU4475 BREAST | 0.518 | 3.26 | 3.28 | 2.1 | 1.92 | 1.48 | 3.44 | 0.457 | 1.65 | 1.96 | 3.5 | 2.76 | 1.65 |
| HCC78 LUNG | 1.75 | 3.32 | 2.26 | 2.96 | 3.25 | 0.382 | 2.89 | 1.31 | 2.45 | 1.48 | 3.56 | 2.5 | 2.58 |
| CAL51 BREAST | 1.23 | 3.32 | 1.91 | 2.99 | 3.19 | 0.99 | 3.36 | 0.818 | 2.79 | 1.28 | 2.67 | 3.16 | 3.12 |
| HCC1954 BREAST | 1.2 | 3.08 | 3.57 | 1.44 | 1.55 | 1.75 | 2.94 | 1.63 | 2.69 | 1.3 | 3.05 | 3.11 | 3.07 |
